Where “and” joins values, the source holds several entries; their conditions need not be identical. Equal entries are not always repeated.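 96-well plates; 48 h exposure; 5 concentrations. Endpoints by linear interpolation between flanking doses. Not reached: highest tested concentration assigned. At the GI50, growth is halved. TGI: concentration producing complete growth inhibition.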
system: NCI-H23 lung; experiment: NCI-60 cell line screen, 48 h

Going from CCOC(=O)/C=C/C(C(=O)/C=C/c1ccc(OC2CCCCO2)c(OC)c1)=C(O)\C=C\c1ccc(OC2CCCCO2)c(OC)c1 (centres undefined) to CCOC(=O)Oc1c(OC)cc(C(=O)NC2CCc3cc(OC)c(OC)c(OC)c3-c3ccc(SC)c(=O)cc32)cc1OC (centres undefined), the GI50 falls from 5900 nM to less than 7 nM.

Going from COc1ccc(N(C)c2ncnc3occ(C)c23)cc1 to COCCOc1cc(F)c2c(Nc3ccc(NC(=O)Cn4cc(C(C)C)nn4)cc3)ncnc2c1, the GI50 rises from less than 10 nM to greater than 100000 nM.

Going from COC(=O)c1cc2c(cc1O)[C@@H](NC(C)=O)CCc1cc(OC)c(OC)c(OC)c1-2 to CC1OC2CC(=O)OC2C2=C1C(=O)c1c(O)cccc1C2=O (centres undefined), the GI50 rises from 21.7 nM to 142 nM (6.5-fold).

Going from CNCCNc1c2c(c(NCCNC)c3c(CN(C)C)c[nH]c13)C(=O)c1ccccc1C2=O to C=CC1CC12C(=O)C1OC2(C)C2C(=O)c3cc4ccccc4cc3C(=O)C12 (centres undefined), the GI50 rises from 2220 nM to 25900 nM (12-fold).

Going from Clc1ccc2c(NCCCNc3nccc(Nc4ccc(Br)cc4)n3)ccnc2c1 to C=C(C)[C@@]12OC3(/C=C/C=C/CCCCC)O[C@@H]1[C@@H]1[C@@H]4O[C@]4(CO)[C@@H](O)[C@]4(O)C(=O)C(C)=C[C@H]4[C@@]1(O3)[C@H](C)[C@H]2OC(=O)c1ccccc1, the GI50 rises from 1740 nM to 2840 nM (1.6-fold).

First: C/C1=C\CC[C@@]2(C)O[C@@H]2[C@H]2OC(=O)[C@@H](CN(C)C)[C@@H]2CC1
Second: C=C(C=O)C1CCC2(C(=O)O)CCC3(C)C(CCC4C5(C)CCC(O)C(C)(C)C5CCC43C)C12 (centres undefined)
The GI50 of the first is 12-fold higher: 19200 nM for the first, 1630 nM for the second.

For CCC[CH2][Sn]([CH2]CCC)([CH2]CCC)[O]C(=O)CC, the GI50 was 149 nM.

Going from CCOC(=O)/C=C/C(C(=O)/C=C/c1ccc(OC2CCCCO2)c(OC)c1)=C(O)\C=C\c1ccc(OC2CCCCO2)c(OC)c1 (centres undefined) to COc1ccc(OC)c(NC(=O)C(=O)NNC(=O)c2sc(NNC(C)=O)nc2C)c1, the TGI rises from 18.7 µM to 68.8 µM (3.7-fold).

O=[N+]([O-])c1nccn1CC(O)c1ccc(F)cc1 (centres undefined) and COc1ccc(NC(=O)CCc2cc(-c3ccc(O)c(OC)c3)nc(NC#N)n2)cc1 cannot be ordered by TGI: greater than 100 µM for the first, greater than 100 µM for the second.

O=C1c2ccccc2C2(Br)C(=O)c3ccccc3C12 (centres undefined) and COc1ccc(N(C)c2ncnc3occ(C)c23)cc1 cannot be ordered by TGI: greater than 100 µM for the first, greater than 100 µM for the second.

CC(=O)Nc1ccc(C(=O)NN2C(=O)C(Cl)C2c2ccccc2)cc1 (centres undefined) and CC(C)(C)OC(=O)NCC(=O)OCc1ccccc1 cannot be ordered by TGI: greater than 100 µM for the first, greater than 100 µM for the second.

COCCOc1cc(F)c2c(Nc3ccc(NC(=O)Cn4cc(C(C)C)nn4)cc3)ncnc2c1 and Cc1ccc(SC(C)/C=C/NNC2=NC(c3ccccc3)C(c3ccccc3)=NN2)cc1 (centres undefined) cannot be ordered by TGI: greater than 100 µM for the first, greater than 100 µM for the second.

First: CC(C)(C)[SiH]12(OC(C(F)(F)F)(C(F)(F)F)c3ccccc31)OC(C(F)(F)F)(C(F)(F)F)c1ccccc12
Second: Cc1nnc(S(=O)(=O)c2ccc(N=Nc3c(N)nc(N)nc3N)cc2)s1
The TGI of the first is lower: 9.64 µM for the first, greater than 100 µM for the second.

First: O=C1OC(c2ccccc2)=N/C1=C/C=C/c1ccco1
Second: Clc1ccc2c(NCCCNc3nccc(Nc4ccc(Br)cc4)n3)ccnc2c1
The TGI of the first is higher: greater than 100 µM for the first, 3.27 µM for the second.

Going from Cc1ccccc1N1C(=O)/C(=C/c2ccc(N(CCC#N)CCC#N)cc2)N=C1c1cc([N+](=O)[O-])ccc1Cl to CC1OC2CC(=O)OC2C2=C1C(=O)c1c(O)cccc1C2=O (centres undefined), the TGI falls from greater than 100 µM to 0.426 µM.

Going from C/C1=C\CC[C@@]2(C)O[C@@H]2[C@H]2OC(=O)[C@@H](CN(C)C)[C@@H]2CC1 to C=C(C=O)C1CCC2(C(=O)O)CCC3(C)C(CCC4C5(C)CCC(O)C(C)(C)C5CCC43C)C12 (centres undefined), the TGI falls from 40 µM to 3.3 µM (12-fold).

Going from Cc1ccc(S(=O)(=O)NCC2CCCCC2=O)cc1 (centres undefined) to CCC[CH2][Sn]([CH2]CCC)([CH2]CCC)[O]C(=O)CC, the TGI falls from greater than 100 µM to 0.615 µM.

Compared with CNC(=S)NC1CCCCC1NC(=S)NC (centres undefined), C=C(C)[C@@]12OC3(/C=C/C=C/CCCCC)O[C@@H]1[C@@H]1[C@@H]4O[C@]4(CO)[C@@H](O)[C@]4(O)C(=O)C(C)=C[C@H]4[C@@]1(O3)[C@H](C)[C@H]2OC(=O)c1ccccc1 is lower in TGI: greater than 100 µM for the first, 8.12 µM for the second.

C=CC1CC12C(=O)C1OC2(C)C2C(=O)c3cc4ccccc4cc3C(=O)C12 (centres undefined) showed a TGI greater than 100 µM.

With CCOC(=O)Oc1c(OC)cc(C(=O)NC2CCc3cc(OC)c(OC)c(OC)c3-c3ccc(SC)c(=O)cc32)cc1OC (centres undefined) the TGI was 0.266 µM and 0.0388 µM.
For COC(=O)c1cc2c(cc1O)[C@@H](NC(C)=O)CCc1cc(OC)c(OC)c(OC)c1-2, the TGI was 0.0848 µM and 0.0712 µM.
O=S(O)CCCCSSCC(O)C(O)CSSCCCCS(=O)O (centres undefined) was tested, and the TGI was 42.3 µM and > 100 µM.

system: OVCAR-8 ovarian; experiment: NCI-60 cell line screen, 48 h

CNC(=S)N(C)C(=S)Nn1c(=O)c(C)nn(C)c1=S and COc1ccc(OC)c(NC(=O)C(=O)NNC(=O)c2sc(NNC(C)=O)nc2C)c1 cannot be ordered by TGI: greater than 100 µM for the first, greater than 100 µM for the second.

CCCCCCCCCC/C=C/CC(=O)SCCNC(=O)CCNC(=O)[C@@H](O)C(C)(C)COP(=O)(O)OP(=O)(O)OCC1OC(n2cnc3c(N)ncnc32)C(O)C1OP(=O)(O)O (some centres undefined) and CCCCN(CCCC)CC(C(=O)Nc1ccc([N+](=O)[O-])cc1[N+](=O)[O-])/C(C)=N\NC(=S)NN (centres undefined) cannot be ordered by TGI: greater than 10 µM for the first, greater than 100 µM for the second.

First: Cc1c2cccnc2c(C)c2c1c1cc(CO)ccc1n2C
Second: O=[N+]([O-])c1nccn1CC(O)c1ccc(F)cc1 (centres undefined)
The TGI of the first is lower: 18.1 µM for the first, greater than 100 µM for the second.

O=C1CN=C(C[N+](=O)[O-])c2ccccc21 and CS(=O)(=O)N/N=C/CN1C(=O)c2ccccc2C1=O cannot be ordered by TGI: greater than 100 µM for the first, greater than 100 µM for the second.

Compared with S=C(N/N=C/c1ccco1)NC12CC3CC(CC(C3)C1)C2, CCOC(=O)/C=C/C(C(=O)/C=C/c1ccc(OC2CCCCO2)c(OC)c1)=C(O)\C=C\c1ccc(OC2CCCCO2)c(OC)c1 (centres undefined) is lower in TGI: greater than 100 µM for the first, 6.2 µM for the second.

Work on Ic1ccc(Nc2nc3nonc3nc2Nc2ccc(I)cc2)cc1 yielded a TGI greater than 100 µM.

For OCCN1CN(CCO)CN(c2nc(N3CN(CCO)CN(CCO)C3)nc(N3CN(CCO)CN(CCO)C3)n2)C1, the TGI was 0.0133 µg/mL.

Going from Cc1c2cccnc2c(C)c2c1c1cc(CO)ccc1n2C to Ic1ccc(Nc2nc3nonc3nc2Nc2ccc(I)cc2)cc1, the GI50 falls from 1550 nM to 351 nM (4.4-fold).

CCOC(=O)/C=C/C(C(=O)/C=C/c1ccc(OC2CCCCO2)c(OC)c1)=C(O)\C=C\c1ccc(OC2CCCCO2)c(OC)c1 (centres undefined) showed a GI50 of 2510 nM.
